Data as given in the supplement of paper PMC8617591.

Columns and labels:
[1] = tested on: Mycobacterium tuberculosis Erdman (autoluminescent); assay: Einf, fitted maximum growth inhibition of three-drug combination (fraction); higher = stronger maximal inhibition
Description: (§1)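 DiaMOND equipotent three-drug combination dose responses (10 doses, 1.5- or 2-fold spacing, centred on IC90) against autoluminescent M. tuberculosis Erdman in 8 in vitro models. Read-out is OD600, or luminescence for the intracellular and dormancy models, normalised to untreated wells. Hill-fit Einf, AUC25 and GRinf are potency metrics; FIC50 and FIC90 are total Loewe fractional inhibitory concentrations as log2 (negative = synergy).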

[2] = tested on: Mycobacterium tuberculosis Erdman (autoluminescent); assay: AUC25, normalised area under dose response up to IC25 (three-drug combination) (fraction (0-1)); higher = more potent at low dose
Description: as §1

[3] = tested on: Mycobacterium tuberculosis Erdman (autoluminescent); assay: GRinf, maximum normalised growth rate inhibition (three-drug combination) (unitless (-1 to 1)); higher = less effect (negative = killing)
Description: as §1

[4] = tested on: Mycobacterium tuberculosis Erdman (autoluminescent); assay: total FIC90 (Loewe) at 90% inhibition, three-drug combination (log2); higher = more antagonistic
Description: as §1

[5] = tested on: Mycobacterium tuberculosis Erdman (autoluminescent); assay: total FIC50 (Loewe) at 50% inhibition, three-drug combination (log2); higher = more antagonistic
Description: as §1

NNC(=O)c1ccncc1 [isoniazid] + NC(=O)c1cnccn1 [pyrazinamide] + CO[C@H]1/C=C/O[C@@]2(C)Oc3c(C)c(O)c4c(O)c(c(/C=N/N5CCN(C6CCCC6)CC5)c(O)c4c3C2=O)NC(=O)/C(C)=C\C=C\[C@H](C)[C@H](O)[C@@H](C)[C@@H](O)[C@@H](C)[C@H](OC(C)=O)[C@@H]1C [rifapentine]
Details	AUC25, [2]	Einf, [1]	GRinf, [3]	total FIC50, [5]	total FIC90, [4]
in vitro model: acidic pH 5.7, time point: constant (~7 days, model-specific)	0.096	0.925	-0.35	-3.55	–
in vitro model: acidic pH 5.7, time point: terminal (~4-5 doublings, model-specific)	0.0425	0.985	-0.234	-2.67	-3.81
in vitro model: intracellular J774, time point: constant = terminal	–	0.987	-0.309	–	0.243

Details	AUC25, [2]	Einf, [1]	GRinf, [3]	total FIC50, [5]	total FIC90, [4]
in vitro model: butyrate, time point: constant (~7 days, model-specific)	0.0899	0.924	-0.00381	-1.95	0.6
in vitro model: butyrate, time point: terminal (~4-5 doublings, model-specific)	0.0698	0.969	0.0193	-1.85	-1.91
in vitro model: cholesterol 0.05 mM, time point: constant (~7 days, model-specific)	0.108	0.706	-0.183	–	–
in vitro model: cholesterol 0.05 mM, time point: terminal (~4-5 doublings, model-specific)	0.0828	0.893	-0.166	-0.19	–
in vitro model: cholesterol-high 0.2 mM, time point: constant (~7 days, model-specific)	0.0744	0.905	-0.222	0.738	–
in vitro model: cholesterol-high 0.2 mM, time point: terminal (~4-5 doublings, model-specific)	0.0802	0.997	-0.658	1.17	1.11
in vitro model: dormancy (butyrate + nitrate, low O2), time point: constant (~7 days, model-specific)	0.0611	0.883	0.232	-2.31	-2.4
in vitro model: dormancy (butyrate + nitrate, low O2), time point: terminal (~4-5 doublings, model-specific)	0.0351	0.973	-0.0606	-2.22	-2.43
in vitro model: standard 7H9 glycerol, time point: constant = terminal	0.066	0.915	0.0607	-5.95	–
in vitro model: valerate, time point: constant (~7 days, model-specific)	0.118	0.878	-0.183	-1.89	–
in vitro model: valerate, time point: terminal (~4-5 doublings, model-specific)	0.0446	0.949	-0.0194	-1.1	-0.889

NNC(=O)c1ccncc1 [isoniazid] + NC(=O)c1cnccn1 [pyrazinamide] + CO[C@H]1/C=C/O[C@@]2(C)Oc3c(C)c(O)c4c(O)c(c(/C=N/N5CCN(C)CC5)c(O)c4c3C2=O)NC(=O)/C(C)=C\C=C\[C@H](C)[C@H](O)[C@@H](C)[C@@H](O)[C@@H](C)[C@H](OC(C)=O)[C@@H]1C [rifampicin]
Details	AUC25, [2]	Einf, [1]	GRinf, [3]	total FIC50, [5]	total FIC90, [4]
in vitro model: acidic pH 5.7, time point: constant (~7 days, model-specific)	0.0814	0.864	-0.12	-1.79	–
in vitro model: acidic pH 5.7, time point: terminal (~4-5 doublings, model-specific)	0.0574	0.988	-0.193	-1.2	-1.75
in vitro model: intracellular J774, time point: constant = terminal	–	0.976	-0.255	–	0.327

Details	AUC25, [2]	Einf, [1]	GRinf, [3]	total FIC50, [5]	total FIC90, [4]
in vitro model: butyrate, time point: constant (~7 days, model-specific)	0.103	0.921	0.00703	-2.04	0.665
in vitro model: butyrate, time point: terminal (~4-5 doublings, model-specific)	0.0827	0.967	0.0033	-2.09	-2.12
in vitro model: cholesterol 0.05 mM, time point: constant (~7 days, model-specific)	0.088	0.633	-0.0371	–	–
in vitro model: cholesterol 0.05 mM, time point: terminal (~4-5 doublings, model-specific)	0.0858	0.865	-0.1	0.166	–
in vitro model: cholesterol-high 0.2 mM, time point: constant (~7 days, model-specific)	0.0657	0.91	-0.258	0.702	–
in vitro model: cholesterol-high 0.2 mM, time point: terminal (~4-5 doublings, model-specific)	0.0664	1	-0.795	1.16	0.74
in vitro model: dormancy (butyrate + nitrate, low O2), time point: constant (~7 days, model-specific)	0.0642	0.891	0.224	-2.66	-3.39
in vitro model: dormancy (butyrate + nitrate, low O2), time point: terminal (~4-5 doublings, model-specific)	0.0565	0.979	-0.0973	-3.09	-2.85
in vitro model: standard 7H9 glycerol, time point: constant = terminal	0.0763	0.917	0.0491	-5.81	–
in vitro model: valerate, time point: constant (~7 days, model-specific)	0.0587	0.86	0.0565	-2.11	–
in vitro model: valerate, time point: terminal (~4-5 doublings, model-specific)	0.0331	0.928	0.0571	-1.04	-1.36

NNC(=O)c1ccncc1 [isoniazid] + O=[N+]([O-])c1cn2c(n1)OC[C@@H](OCc1ccc(OC(F)(F)F)cc1)C2 [pretomanid] + CO[C@H]1/C=C/O[C@@]2(C)Oc3c(C)c(O)c4c(O)c(c(/C=N/N5CCN(C6CCCC6)CC5)c(O)c4c3C2=O)NC(=O)/C(C)=C\C=C\[C@H](C)[C@H](O)[C@@H](C)[C@@H](O)[C@@H](C)[C@H](OC(C)=O)[C@@H]1C [rifapentine]
Details	AUC25, [2]	Einf, [1]	GRinf, [3]	total FIC50, [5]	total FIC90, [4]
in vitro model: acidic pH 5.7, time point: constant (~7 days, model-specific)	0.0727	0.917	-0.193	4.53	–
in vitro model: acidic pH 5.7, time point: terminal (~4-5 doublings, model-specific)	0.0598	0.992	-0.24	4.23	4.33
in vitro model: intracellular J774, time point: constant = terminal	–	0.999	-0.647	–	0.264

Details	AUC25, [2]	Einf, [1]	GRinf, [3]	total FIC50, [5]	total FIC90, [4]
in vitro model: butyrate, time point: constant (~7 days, model-specific)	0.0925	0.927	-0.00998	2.86	1.02
in vitro model: butyrate, time point: terminal (~4-5 doublings, model-specific)	0.0727	0.966	0.00856	2.77	2.95
in vitro model: cholesterol 0.05 mM, time point: constant (~7 days, model-specific)	0.0995	0.687	-0.151	1.97	–
in vitro model: cholesterol 0.05 mM, time point: terminal (~4-5 doublings, model-specific)	0.0863	0.914	-0.223	2.05	0.57
in vitro model: cholesterol-high 0.2 mM, time point: constant (~7 days, model-specific)	0.0548	0.808	-0.0225	0.663	–
in vitro model: cholesterol-high 0.2 mM, time point: terminal (~4-5 doublings, model-specific)	0.0663	0.994	-0.46	0.773	0.83
in vitro model: dormancy (butyrate + nitrate, low O2), time point: constant (~7 days, model-specific)	0.0593	0.871	0.27	2.68	2.64
in vitro model: dormancy (butyrate + nitrate, low O2), time point: terminal (~4-5 doublings, model-specific)	0.0428	0.978	-0.11	2.7	2.66
in vitro model: standard 7H9 glycerol, time point: constant = terminal	0.0426	0.884	0.179	4.92	–
in vitro model: valerate, time point: constant (~7 days, model-specific)	0.102	0.894	-0.014	2.74	–
in vitro model: valerate, time point: terminal (~4-5 doublings, model-specific)	0.0549	0.938	-0.167	3.29	2.95

NNC(=O)c1ccncc1 [isoniazid] + O=[N+]([O-])c1cn2c(n1)OC[C@@H](OCc1ccc(OC(F)(F)F)cc1)C2 [pretomanid] + CO[C@H]1/C=C/O[C@@]2(C)Oc3c(C)c(O)c4c(O)c(c(/C=N/N5CCN(C)CC5)c(O)c4c3C2=O)NC(=O)/C(C)=C\C=C\[C@H](C)[C@H](O)[C@@H](C)[C@@H](O)[C@@H](C)[C@H](OC(C)=O)[C@@H]1C [rifampicin]
Details	AUC25, [2]	Einf, [1]	GRinf, [3]	total FIC50, [5]	total FIC90, [4]
in vitro model: acidic pH 5.7, time point: constant (~7 days, model-specific)	0.0775	0.859	-0.11	3.95	–
in vitro model: acidic pH 5.7, time point: terminal (~4-5 doublings, model-specific)	0.0694	0.984	-0.197	3.6	3.63
in vitro model: intracellular J774, time point: constant = terminal	–	0.984	-0.312	–	-0.077

Details	AUC25, [2]	Einf, [1]	GRinf, [3]	total FIC50, [5]	total FIC90, [4]
in vitro model: butyrate, time point: constant (~7 days, model-specific)	0.0916	0.923	0.00511	2.61	0.589
in vitro model: butyrate, time point: terminal (~4-5 doublings, model-specific)	0.0722	0.963	0.0279	2.48	2.45
in vitro model: cholesterol 0.05 mM, time point: constant (~7 days, model-specific)	0.0953	0.655	-0.0786	1.31	–
in vitro model: cholesterol 0.05 mM, time point: terminal (~4-5 doublings, model-specific)	0.0868	0.899	-0.194	1.53	0.957
in vitro model: cholesterol-high 0.2 mM, time point: constant (~7 days, model-specific)	0.0449	0.872	-0.204	0.405	–
in vitro model: cholesterol-high 0.2 mM, time point: terminal (~4-5 doublings, model-specific)	0.0391	0.977	-0.604	0.794	0.324
in vitro model: dormancy (butyrate + nitrate, low O2), time point: constant (~7 days, model-specific)	0.066	0.857	0.266	2.35	2.04
in vitro model: dormancy (butyrate + nitrate, low O2), time point: terminal (~4-5 doublings, model-specific)	0.0408	0.974	-0.0694	2.21	2.12
in vitro model: standard 7H9 glycerol, time point: constant = terminal	0.0661	0.893	0.151	5.01	3.36
in vitro model: valerate, time point: constant (~7 days, model-specific)	0.0615	0.863	0.000666	3.28	–
in vitro model: valerate, time point: terminal (~4-5 doublings, model-specific)	0.0349	0.939	0.0355	3.03	1.97

NNC(=O)c1ccncc1 [isoniazid] + O=[N+]([O-])c1cn2c(n1)OC[C@@H](OCc1ccc(OC(F)(F)F)cc1)C2 [pretomanid] + NC(=O)c1cnccn1 [pyrazinamide]
Details	AUC25, [2]	Einf, [1]	GRinf, [3]	total FIC50, [5]	total FIC90, [4]
in vitro model: acidic pH 5.7, time point: constant (~7 days, model-specific)	0.0986	0.815	-0.16	-0.198	–
in vitro model: acidic pH 5.7, time point: terminal (~4-5 doublings, model-specific)	0.0871	0.976	-0.481	-0.0964	-0.184
in vitro model: intracellular J774, time point: constant = terminal	–	1	-0.492	–	0.732

Details	AUC25, [2]	Einf, [1]	GRinf, [3]	total FIC50, [5]	total FIC90, [4]
in vitro model: butyrate, time point: constant (~7 days, model-specific)	0.0971	0.946	-0.0723	0.158	0.768
in vitro model: butyrate, time point: terminal (~4-5 doublings, model-specific)	0.0657	0.972	-0.0263	0.227	0.423
in vitro model: cholesterol 0.05 mM, time point: constant (~7 days, model-specific)	0.106	0.696	-0.21	–	–
in vitro model: cholesterol 0.05 mM, time point: terminal (~4-5 doublings, model-specific)	0.0922	0.924	-0.353	5.94	–
in vitro model: cholesterol-high 0.2 mM, time point: constant (~7 days, model-specific)	0.0717	0.874	-0.172	0.524	–
in vitro model: cholesterol-high 0.2 mM, time point: terminal (~4-5 doublings, model-specific)	0.0681	1	-0.653	0.832	0.548
in vitro model: dormancy (butyrate + nitrate, low O2), time point: constant (~7 days, model-specific)	0.0747	0.882	0.238	-0.215	-0.286
in vitro model: dormancy (butyrate + nitrate, low O2), time point: terminal (~4-5 doublings, model-specific)	0.0455	0.984	-0.172	-0.137	-0.122
in vitro model: standard 7H9 glycerol, time point: constant = terminal	0.0648	0.923	0.0829	0.311	–
in vitro model: valerate, time point: constant (~7 days, model-specific)	0.115	0.888	-0.0645	-0.24	–
in vitro model: valerate, time point: terminal (~4-5 doublings, model-specific)	0.0719	0.922	0.077	0.0468	0.0214
